In ChEMBL document CHEMBL1121435, “Prostaglandin analogues possessing antinidatory effects. 2. Modification of the alpha chain” (1980):

System: Rattus norvegicus
Assay: Antinidatory effect was measured in the rat, relative to that of prostaglandin F2-alpha (ED50 = 1.3 (0.9-1.87)mg/kg)
Format: functional

Structure (SMILES) | Relative activity
COC(=O)/C=C/C/C=C\C[C@@H]1[C@@H](/C=C/[C@@H](O)COc2cccc(C(F)(F)F)c2)[C@H](O)C[C@@H]1O | 100
COC(=O)C/C=C/C=C\C[C@@H]1[C@@H](/C=C/[C@@H](O)COc2cccc(Cl)c2)[C@H](O)C[C@@H]1O | 800
COC(=O)C/C=C/C=C/C[C@@H]1[C@@H](/C=C/[C@@H](O)COc2ccccc2)[C@H](O)C[C@@H]1O | 200
COC(=O)/C=C/C=C/CC[C@@H]1C(/C=C/[C@@H](O)COc2ccccc2)[C@H](O)C[C@@H]1O (some centres not stated) | 20
COC(=O)/C=C/C/C=C/C[C@@H]1[C@@H](/C=C/[C@@H](O)COc2cccc(Cl)c2)[C@H](O)C[C@@H]1O | 100
O=C(O)/C=C/C/C=C\C[C@@H]1[C@@H](/C=C/[C@@H](O)COc2cccc(Cl)c2)[C@H](O)C[C@@H]1O | 200
COC(=O)CC=C/C=C\C[C@@H]1[C@@H](/C=C/[C@@H](O)COc2ccccc2)[C@H](O)C[C@@H]1O | 1200
COC(=O)CC=C/C=C\C[C@@H]1[C@@H](/C=C/[C@@H](O)COc2cccc(Cl)c2)[C@H](O)C[C@@H]1O | 600
COC(=O)C/C=C/CCC[C@@H]1[C@@H](/C=C/[C@@H](O)COc2ccccc2)[C@H](O)C[C@@H]1O | 40
O=C(O)/C=C/CCCC[C@@H]1[C@@H](/C=C/[C@@H](O)COc2cccc(C(F)(F)F)c2)[C@H](O)C[C@@H]1O | 4
COC(=O)C/C=C/C=C/C[C@@H]1[C@@H](/C=C/[C@@H](O)COc2cccc(Cl)c2)[C@H](O)C[C@@H]1O | 100
COC(=O)C/C=C/C=C\C[C@@H]1[C@@H](/C=C/[C@@H](O)COc2cccc(C(F)(F)F)c2)[C@H](O)C[C@@H]1O | 100
COC(=O)C(CC/C=C\C[C@@H]1[C@@H](/C=C/[C@@H](O)COc2cccc(Cl)c2)[C@H](OC2CCCCO2)C[C@@H]1OC1CCCCO1)[Se]c1ccccc1 (some centres not stated) | 1
COC(=O)CCC/C=C\C[C@@H]1[C@@H](/C=C/[C@@H](O)COc2cccc(C(F)(F)F)c2)[C@H](O)C[C@@H]1O | 100
COC(=O)C/C=C/C=C\C[C@@H]1[C@@H](/C=C/[C@@H](O)COc2ccccc2)[C@H](O)C[C@@H]1O | 800
COC(=O)CCC/C=C\C[C@@H]1[C@@H](/C=C/[C@@H](O)COc2cccc(Cl)c2)[C@H](O)C[C@@H]1O | 200
COC(=O)/C=C/C/C=C\C[C@@H]1[C@@H](/C=C/[C@@H](O)COc2ccc(Cl)cc2)[C@H](O)C[C@@H]1O | 100

System: Rattus norvegicus
Assay: Antinidatory effect was measured in the rat, relative to that of prostaglandin F2-alpha (ED50 = 1.3 (0.9-1.87) mg/kg); Range 2-4
Format: functional

Structure (SMILES) | Relative activity
O=C(O)/C=C\CCCC[C@@H]1[C@@H](/C=C/[C@@H](O)COc2cccc(C(F)(F)F)c2)[C@H](O)C[C@@H]1O | 2

System: Rattus norvegicus
Assay: Antinidatory effect was measured in the rat, relative to that of prostaglandin F2alpha (ED50 = 1.3 (0.9-1.87) mg/kg); Range 200-400
Format: functional

Structure (SMILES) | Relative activity
COC(=O)/C=C/C/C=C\C[C@@H]1[C@@H](/C=C/[C@@H](O)COc2ccccc2)[C@H](O)C[C@@H]1O | 200
COC(=O)C/C=C/C=C\C[C@@H]1[C@@H](/C=C/[C@@H](O)COc2ccc(Cl)cc2)[C@H](O)C[C@@H]1O | 200
COC(=O)CCC/C=C\C[C@@H]1[C@@H](/C=C/[C@@H](O)COc2ccccc2)[C@H](O)C[C@@H]1O | 200

System: Rattus norvegicus
Assay: Antinidatory effect was measured in the rat, relative to that of prostaglandin F2-alpha (ED50 = 1.3 (0.9-1.87) mg/kg); Range 4-8
Format: functional

Structure (SMILES) | Relative activity
COC(=O)/C=C/C=C/CC[C@@H]1C(/C=C/[C@@H](O)COc2cccc(Cl)c2)[C@H](O)C[C@@H]1O (some centres not stated) | 4
